Measured values reported in US20090075921A1, “Bone/joint disease sensitivity gene and use thereof” (Riken, priority 2004, published 2009).

B1: human asporin D13: human asporin with 13 aspartic acid repeats, expressed from pcDNA3.1-ASP13 (SEQ ID NO:4) (protein, UniProt Q9BXN1 33-380, looked up)
Asporin: DMEDTDDDDDDDDDDDDDDEDNSLFPTREPRSHFFPFDLFPMCPFGCQCYSRVVHCSDLGLTSVPTNIPFDTRMLDLQNNKIKEIKENDFKGLTSLYGLILNNNKLTKIHPKAFLTTKKLRRLYLSHNQLSEIPLNLPKSLAELRIHENKVKKIQKDTFKGMNALHVLEMSANPLDNNGIEPGAFEGVTVFHIRIAEAKLTSVPKGLPPTLLELHLDYNKISTVELEDFKRYKELQRLGLGNNKITDIENGSLANIPRVREIHLENNKLKKIPSGLPELKYLQIIFLHSNSIARVGVNDFCPTVPKMKKSLYSAISLFNNPVKYWEMQPATFRCVLSRMSVQLGNFGM

Columns and labels:
NHAC-kn = assay: Induction with TGF-β1 of asporin gene expression in NHAC-kn; assay type: cell-based, human; conditions: TGF-β1 10 ng/ml, 24 hours
Procedure: (§1) In various cartilage lineage cell lines, the potential of TGF-β1 for inducing asporin gene expression was examined by the method described below. OUMS-27 was cultured in a DMEM containing 10% FBS, CS-OKB was cultured in an RPMI1640 containing 10% FBS, and normal human articular chondrocytes of knee joint (NHAC-kn, P7, monolayer, Clonetics) were cultured using Chondrocyte Growth Medium (CGM, Clonetics). ATDC5 was cultured using the medium 1-2 described in Example 13. For the induction experiments in the cartilage lineage cell lines, cells were cultured in the above-described media until they became confluent, after which the medium was exchanged with a medium containing 0.2% FBS, and the cells were cultured for 12 hours; TGF-β1 (10 ng/ml) was added, and the cells were further cultured for 24 hours. RNA extraction, cDNA synthesis, and real-time PCR were performed by the methods described in Example 12.

OUMS-27 = assay: Induction with TGF-β1 of asporin gene expression in OUMS-27; assay type: cell-based, human; conditions: TGF-β1 10 ng/ml, 24 hours
Procedure: as §1

NHAC [1] = assay: Articular chondrocyte differentiation maintenance in redifferentiated NHAC; assay type: cell-based, human; conditions: 7 days, TGF-β1 40 ng/ml, asporin 20 μg/ml where added
Procedure: NHAC was redifferentiated by alginate beads culture for 2 weeks using a chondrocyte differentiation medium (CDM) manufactured by Cambrex Company according to the protocol attached. These redifferentiated cells were inoculated to a Lab-Tek II chamber slide (Nunc), a DMEM/F12 containing 5% FBS, ITS (Sigma), and TGF-β1 (40 ng/ml) was added, and the cells were allowed to maintain the degree of differentiation thereof; the effects of addition of asporin (20 μg/ml) on the cell morphology and extracellular proteoglycan accumulation were examined.

NHAC [2] = assay: MTT assay of TGF-β1-stimulated cell growth in NHAC; assay type: cell-based, human; conditions: TGF-β1 40 ng/ml alone, 5 days
Procedure: NHAC was inculated to a 12-well plate at 1×10^5 cells/well, and cultured in a DMEM/F12 containing 10% FBS supplemented with TGF-β1 (40 ng/ml) and asporin (5 or 20 μg/ml) for 5 days, after which the degree of cell growth was examined by the MTT assay method described below. Specifically, 3-(4,5-dimethyl-2-thiazolyl)-2,5-diphenyl-2H-tetrazolium bromide (MTT, Dojindo Laboratory) was dissolved in DMEM/F12 to obtain a concentration of 1 mg/ml, the solution was added to the cells after the medium was removed by suction, and the cells were cultured at 37° C. for 1 hour. Thereafter the medium containing MTT was discarded, and the cells were subjected to extraction treatment using a Lysis reagent (86% isopropanol, 40 mM hydrochloric acid, 1% SDS). This cell lysate was transferred to a 96-well plate, and the absorbance at 550 nm was measured using a microplate reader.

NHAC [3] = assay: Time course of asporin gene expression by TGF-β1 in NHAC; assay type: cell-based, human; conditions: TGF-β1 10 ng/ml
Procedure: A time course of the expression of the asporin gene by TGF-β1 in NHAC was examined as described below. Cells were inoculated to a 12-well plate at 1×10^5 cells/well, and cultured in a DMEM/F12 containing 10% FBS until they became confluent. The medium was exchanged with a DMEM/F12 containing 0.2% FBS, and the cells were cultured for 24 hours, after which TGF-β1 (10 ng/ml) was added, total RNA was extracted over time, and the expression levels of the asporin and GAPDH genes were examined. As a result, the expression level of the asporin gene maximized when the cells were cultured in the presence of TGF-β1 (10 ng/ml) for 12 hours, and thereafter the expression level decreased over time (FIG. 46).

ATDC5 = assay: Induction with TGF-β1 of asporin gene expression in ATDC5; assay type: cell-based, mouse; conditions: TGF-β1 10 ng/ml, 24 hours
Procedure: as §1

[4] = tested on: ATDC5 cell lines that transiently express human asporin; assay: TGF-β1-stimulated aggrecan and type II collagen gene expression in ATDC5 transiently expressing human asporin; assay type: cell-based, mouse; conditions: transient expression vs mock, TGF-β1 10 ng/ml, 18 hours
Procedure: ATDC5 cells were inoculated to a 12-well plate at 0.5×10^5 cells/well, and cultured in a medium 1-2 (DMEM/F12 medium containing 5% FBS, ITS (Sigma), penicillin (100 U/ml) and streptomycin (100 μg/ml)). 24 hours later, pcDNA3.1-ASP13 or pcDNA3.1-ASP14 were introduced using FuGENE-6 (Roche), and the cells were cultured for 24 hours. Next, the medium was exchanged with a medium 1-2 containing 0.2% FBS, and the cells were cultured for 12 hours, after which TGF-β1 (10 ng/ml) was added, and the cells were further cultured for 18 hours, after which total RNA extraction, purification, cDNA synthesis, and real-time PCR were performed in the same manner as Example 18. As a result, the elevation of the TGF-β1-stimulated expression levels of the aggrecan and type II collagen genes was suppressed in the ATDC5 cells allowed to transiently express human asporin D13 or D14 compared to mock (FIG. 14).
First, the expression level of the aggrecan gene elevated by TGF-β1 stimulation in mock is written as (AM), and the expression level of the type II collagen gene at the same time is written as (CM). Next, the TGF-β1-stimulated aggrecan gene expression level suppressed by the forced expression of asporin D13 is written as (A13), and the type II collagen gene expression level at the same time is written as (C13). […] Thus, the suppression rate of the TGF-β1-stimulated aggrecan gene expression in the asporin D13 expressing line can be expressed as (A13)/(AM), and the suppression rate of the type II collagen gene expression as (C13)/(CM). Likewise, the suppression rate of the TGF-β1-stimulated aggrecan gene expression in the asporin D14 expressing line can be expressed as (A14)/(AM), and the suppression rate of the type II collagen gene expression as (C14)/(CM). Furthermore, by making a correction by dividing these values by the human asporin mRNA content obtained with TGF-β1 stimulation, the suppression rate of the aggrecan and type II collagen gene expression per human asporin mRNA content were calculated. […]

[5] = tested on: ATDC5 cell lines that stably express human asporin; assay: TGF-βs-stimulated aggrecan and type II collagen gene expression in ATDC5 lines stably expressing human asporin; assay type: cell-based, mouse; conditions: stably expressing lines vs mock, TGF-βs 10 ng/ml, 24 hours
Procedure: Plasmid DNAs for allowing ATDC5 cells, a mouse cartilage stem cell line, to stably express human asporin were prepared as described below. First, by the method described below, full-length cDNAs of human asporin D13 and D14 were acquired. Using KOD-plus (Toyobo), according to the method described in the attached protocol, a reaction mixture was prepared. Per 25 μl of the reaction mixture, […] each of a sense strand primer comprising the initiation codon and a restriction enzyme XhoI site, and an antisense strand primer comprising the stop codon of aspotin and a restriction enzyme BamHI site, were used as the primers, and 1 μl (10 ng as total RNA) of a cDNA solution prepared from total RNA extracted from knee articular cartilage from OA patients carrying the D13 allele and the D14 allele of aspartic acid repeat polymorphisms in asporin heterologously was used as the template. […]
The TGF-βs-stimulated expression of the aggrecan and type II collagen genes in ATDC5 cell lines that stably express human asporin was quantified by the method described below. […] For real-time PCR, reactions were performed using QuantiTect SYBR Green PCR Kit (QIAGEN), and detection and quantitation were performed using ABI PRISM 7700. […]

[6] = tested on: ATDC5 cell lines that stably express human asporin; assay: Cartilage differentiation culture of ATDC5 lines stably expressing human asporin; assay type: cell-based, mouse; conditions: stably expressing lines, 5, 9, 15 or 21 days; mock peaks on Day 9
Procedure: The ATDC5 cell lines that stably express human asporin prepared in Example 17 were inoculated to a 12-well plate at 0.3×10^5 cells/well, and cultured in a medium 1-1 for 5, 9, 15 or 21 days, after which total RNA extraction, purification, cDNA synthesis, and real-time PCR were performed in the same manner as Example 18.

[7] = tested on: ATDC5 cell lines that stably express human asporin; assay: Alcian Blue staining of extracellular proteoglycan in ATDC5 lines stably expressing human asporin; assay type: cell-based, mouse; conditions: Day 21 of cultivation, absorbance at 630 nm
Procedure: The ATDC5 cell lines that stably express human asporin prepared in Example 17 were cultured by the method described in Example 20; using the cells on Day 21 after the start of cultivation, Alcian Blue staining was performed as described below. First, the medium was removed by suction, and the cell surface was washed with cold PBS three times, after which methanol fixation was performed at 4° C. for 2 minutes. The methanol was removed by suction, the cells were once rinsed with distilled water, and then stained using 0.1% Alcian Blue 8GX (Sigma)/3% acetic acid solution at 4° C. for 2 days. The staining solution was removed, the cells were washed with distilled water three times, and then examined under microscope and photographed. Thereafter, the cells were treated with aqueous solution of 6 M guanidine hydrochloride to extract the stained proteoglycan, after which the absorbance at 630 nm was measured.

Molecule | expression of the asporin gene with TGF-β1 stimulation (NHAC-kn) | expression of the asporin gene with TGF-β1 stimulation (OUMS-27) | Safranine-O stainability (extracellular proteoglycan) (NHAC [1]) | cell morphology (NHAC [1]) | cell growth of NHAC (MTT, absorbance at 550 nm) (NHAC [2]) | culture time at which the expression level of the asporin gene maximized (NHAC [3]) [h] | expression level of asporin after 3 days in the presence of TGF-β1 (NHAC [3]; vs control) | expression of asporin with TGF-β1 stimulation (ATDC5) | elevation of the TGF-β1-stimulated expression levels of the aggrecan and type II collagen genes [4] | elevation of the TGF-β1-stimulated expression levels of the aggrecan and type II collagen genes [5] | expression of the aggrecan and type II collagen genes during cartilage differentiation culture [6] | intensity of staining with Alcian Blue (extracellular proteoglycan) [7]
TGF-β1: TGF-β isoform, regulatory factor of cartilage differentiation used as stimulus | significant increases | significant increases | positive | egg-like morphology | increased | 12 | smaller than that without induction | tended to be slightly suppressed |  |  |  | 
B1 |  |  |  |  |  |  |  |  | suppressed | suppressed compared to mock | did not rise | mock>D13>D14
